These results are taken from patent US10745355B2, “Anti-cancer compounds” (THE UNIVERSITY OF SYDNEY, priority 2015, dated 2020).

One data set concerns U251. In words: Alamar blue cell viability assay, U251 cells. Conditions: Homo sapiens, U-251; 72 hours of treatment; mean±SEM, three independent experiments. Format: cell-based. The procedure: (§1) U87 and U251 cell lines were obtained from the European Collection of Cell Cultures (ECACC) through CellBank Australia. U87-EGFRvIII cell line was obtained from their lab of origin (Nishikawa et al., 1994, Proc Natl Acad Sci USA 91: 7727-7731) and tested for EGFR amplification and mutation by immunoblotting and flow cytometry. Cells were cultured in DMEM medium (Invitrogen by Life Technologies, Carlsbad, Calif., USA) supplemented with 10% FBS (Sigma-Aldrich) at 37° C. and 5% CO2. Primary gliomaspheres (RN1, classical; WK1, mesenchymal) were derived from glioblastoma specimens (Day et al., 2013, Cancers 5: 357-371; Day et al., 2013, Cancer Cell 23: 238-248), maintained in StemPro NSC serum-free media supplemented with EGF and FGF (all Life Technologies), and grown on matrigel-coated flasks (Pollard et al., 2009, Cell Stem Cell 4: 568-580).
(§2) Cell viability was determined using Alamar blue assay after 72 hours of treatment (Table 2). EC50 values were calculated using non-linear regression on Graph Pad Prism version 5. c Log P values calculated using ChemBioDraw Software. Results are mean±SEM from three independent experiments performed in triplicates.
(Resazurin is reduced to fluorescent resorufin, in cell work by metabolically active cells.)

For data set [1], the system named is U87vIII. In words: Alamar blue cell viability assay, U87vIII cells. In kind it is cell-based. Conditions: 72 hours of treatment; mean±SEM, three independent experiments. As to the method:
as §1, §2

Data set [2] deals with U87. As to the kind of experiment: Alamar blue cell viability assay, U87 cells. In kind it is cell-based. To be noted: Homo sapiens, U-87 MG; 72 hours of treatment; mean±SEM, three independent experiments. As to the method:
as §1, §2

The subject of data set [3] is WK1 gliomaspheres (mesenchymal). In words: AlamarBlue cell viability assay, WK1 gliomaspheres. In kind it is cell-based. To be noted: 72 h of drug treatment, FIG. 11B. The procedure:
(§3) FIGS. 11A-11B. Efficacy of SC-38 (referred to as “CMPD1”), compound 1-08 (referred to as “cmpd 13”), compound 1-18 (referred to as “cmpd 7”), and compound 1-38 (referred to as “cmpd 10”) in primary gliomaspheres representing two glioblastoma subtypes. (11A) RN1, classical, and (11B) WK1, mesenchymal. Cellular efficacy (EC50) of test compounds was determined using AlamarBlue cell viability assay after 72 h of drug treatment. Data are mean±SEM from 3 independent experiments performed in triplicate.
as §1
The effect of SC-38, and compounds 1-08, 1-18 and 1-38 in a cell viability assay employing patient-derived gliomaspheres was also investigated. RN1 gliomaspheres representing glioblastoma of the classical subtype were most responsive to the treatment (FIG. 11, where SC-38 is referred to as “CMPD1”, compound 1-08 is referred to as “compound 13”, compound 1-18 is referred to as “compound 7”, and compound 1-38 is referred to as “compound 10”).

Data set [4] is described as follows: Brain uptake in BALB/c mice. Format: in vivo. Conditions: 10 mg/kg intraperitoneally, brains harvested at 30 and 60 min, HPLC. As to the method: BALB/c mice were injected intraperitoneally with tested inhibitor (10 mg/kg) and brains harvested at 30 and 60 min. Solid-phase extraction was performed using brain homogenates and the amount of the test compound was determined with HPLC. Lapatinib data are from Polli, J. W. et al. “The Role of Efflux and Uptake Transporters in N-{3-Chloro-4-[(3-fluorobenzyl)oxy]phenyl}-6-[5-({[2-(methylsulfonyl)ethyl]amino}methyl)-2-furyl]-4-quinazolinamine (GW572016, Lapatinib) Disposition and Drug Interactions”, Drug Metabolism and Disposition 36, 695-701 (2008).

In data set [5] the test system is U87vIII. In words: Annexin-FITC/7-AAD apoptosis assay, U87vIII cells. Conditions: 48 hours treatment. In kind it is cell-based. The procedure:
(§4) FIGS. 4A-4D. […] U87 (4A-4B) and U87vIII (4C-4D) cells were treated with SC-38 for 48 hours and stained with Annexin-FITC/7-AAD. Apoptotic cells were visualized using the MUSE cell analyzer (Millipore).
(§5) FIGS. 6A-6D. […] U87 (A B) (6A-6B) and U87vIII (6C-6D) cells were treated with compound 1-08 for 48 hours and stained with Annexin-FITC/7-AAD. Apoptotic cells were visualized using the MUSE cell analyzer (Millipore). Results are means±SEM from 3 independent experiments. One-way ANOVA followed by Dunnet post-test was used to calculate statistical significance (***P<0.001).
(§6) U87 (FIGS. 4, A-B) and U87vIII (FIG. 4, C-D) cells were treated with SC-38 for 48 hours and stained with Annexin-FITC/7-AAD. Apoptotic cells were visualized using the MUSE cell analyzer (Millipore). Results are means±SEM from 3 independent experiments. One-way ANOVA followed by Dunnet post-test was used to calculate statistical significance (**P<0.01, ***P<0.001)
(§7) U87 (FIGS. 6, A-B) and U87vIII (FIG. 6, C-D) cells were treated with compound 1-08 for 48 hours and stained with Annexin-FITC/7-AAD. Apoptotic cells were visualized using the MUSE cell analyzer (Millipore). Results are means±SEM from three independent experiments. One-way ANOVA followed by Dunnet post-test was used to calculate statistical significance (***P<0.001).

The test system of data set [6] is RN1 gliomaspheres (classical). In words: AlamarBlue cell viability assay, RN1 gliomaspheres. In kind it is cell-based. To be noted: 72 h of drug treatment, FIG. 11A. As to the method:
as §3
as §1, with “568-580). […]” for “568-580).”

Data set [7] relates to U87. As to the kind of experiment: Annexin-FITC/7-AAD apoptosis assay, U87 cells. Format: cell-based. To be noted: 48 hours treatment. The procedure: as §4, §5, §6, §7
For another data set, the system named is glioma cell lines. In words: Viability (Alamar Blue) and cytotoxicity (ToxiLight) in glioma cell lines. In kind it is cell-based. To be noted: 10 nM-10 μM, 72 hours. As to the method: Cells were treated with SC-38 (10 nM-10 μM) for 72 hours. Cells were subjected to viability testing (left, Alamar Blue viability assay, Invitrogen) and supernatant harvested for bioluminescent cytotoxicity analysis (right, ToxiLight™ bioassay kit, Lonza).

Another data set addresses T1, Porcine brain tubulin (Sus scrofa, UniProt P02550+P02554).
T1 construct: purchased Cytoskeleton, Colo., USA (Tubulin Polymerisation Assay kit); host or cells: porcine brain (tissue-purified)
In words: Fluorescence-based tubulin polymerisation assay. Format: biochemical. To be noted: 37° C., FIG. 10A. As to the method:
FIGS. 10A-10D. […] (10A) Compound 1-08 inhibits tubulin polymerisation in vitro. Data are expressed as mean from at least 3 independent experiments; each data point was performed in triplicates. (10B) U87 cells treated with compound 1-08 (24 h) were stained with Alexa488-labelled anti-β-tubulin antibody (green) or DAPI (blue). Treatment profoundly disturbed the microtubule network and caused formation of multinucleated cell (white arrows). White scale bar represents 50 μm. Multinucleated cells were manually counted and at least 200 cells were counted for each sample. Data in the bar graph (10C) are expressed as mean±SEM (n=3; * P<0.05, *** P<0.001; 1-way ANOVA followed by Newman-Keuls posttest). (10D) U87 cells were treated with compound 1-08 (48 h), tubulin and DNA were stained as in (10B). Treatment with 1-08 caused defective mitotic spindle formation. Representative images from 3 independent experiments are shown. White scale bar represents 2 μm.
The effect of compound 1-08 on tubulin polymerisation and mitotic spindle formation was also investigated. The fluorescence-based tubulin polymerisation assay was conducted in the final volume of 55 μL using the Tubulin Polymerisation Assay kit (Cytoskeleton, Colo., USA) as per the manufacturer's instructions. Porcine brain tubulin was incubated with test compounds (paclitaxel, vinblastine and compound 1-08) at 37° C. and fluorescence was measured using FLUOstar Omega microplate reader (BMG Labtech, Ortenberg, Germany; excitation at 355 nm and emission at 460 nm). […] To test whether compound 1-08 alters microtubules in vivo, U87 glioblastoma cells were treated with compound 1-08 and the effect on the microtubules was determined by immunofluorescence staining of β-tubulin. […] The consequence of microtubule depolymerisation induced by compound 13 was disrupted spindle assembly (FIG. 10D). In untreated U87 cells undergoing mitosis, microtubules are assembled into bipolar spindles (control images).

As usually defined, the EC50 is the concentration needed to bring the measured effect to its halfway point.

Each structure is given as a SMILES string.

T1 sequence (P02550 whole entry): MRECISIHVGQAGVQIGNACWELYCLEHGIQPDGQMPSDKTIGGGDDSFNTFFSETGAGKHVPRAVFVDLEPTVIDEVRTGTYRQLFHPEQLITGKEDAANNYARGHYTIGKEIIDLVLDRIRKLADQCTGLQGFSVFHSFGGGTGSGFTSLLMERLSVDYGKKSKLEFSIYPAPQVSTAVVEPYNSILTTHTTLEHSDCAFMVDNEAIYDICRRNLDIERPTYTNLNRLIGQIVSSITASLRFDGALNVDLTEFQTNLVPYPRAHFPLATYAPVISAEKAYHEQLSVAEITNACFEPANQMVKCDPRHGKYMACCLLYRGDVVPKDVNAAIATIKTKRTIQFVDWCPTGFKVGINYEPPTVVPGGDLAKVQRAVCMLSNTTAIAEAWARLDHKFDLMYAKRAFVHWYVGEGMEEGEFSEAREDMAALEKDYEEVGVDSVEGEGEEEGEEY
T1 sequence (P02554 whole entry): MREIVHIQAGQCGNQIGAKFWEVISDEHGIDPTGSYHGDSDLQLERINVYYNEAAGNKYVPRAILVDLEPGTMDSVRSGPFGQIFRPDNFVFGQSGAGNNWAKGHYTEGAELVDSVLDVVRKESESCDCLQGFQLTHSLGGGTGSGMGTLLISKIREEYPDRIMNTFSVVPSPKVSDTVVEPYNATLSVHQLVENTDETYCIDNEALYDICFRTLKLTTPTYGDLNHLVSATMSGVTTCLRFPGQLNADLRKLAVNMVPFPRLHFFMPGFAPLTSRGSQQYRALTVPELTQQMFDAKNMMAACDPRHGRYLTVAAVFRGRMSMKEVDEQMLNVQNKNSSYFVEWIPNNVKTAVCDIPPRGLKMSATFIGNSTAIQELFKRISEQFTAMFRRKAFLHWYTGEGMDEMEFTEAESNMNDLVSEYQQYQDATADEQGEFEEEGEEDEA

For the compound `O=C(CCCc1ccc(-c2cncnc2)cc1)Nc1ccc(O)cc1` [Compound 1-01, N-(4-hydroxyphenyl)-4-(4-(pyrimidin-5-yl)phenyl)butanamide], the figures for the concentration giving a half-maximal response (EC50) in the data set on U251, with U87vIII [1] and in the data set with U87 [2] were greater than 10000 nM, greater than 10 µM and greater than 10 µM, respectively.
As to `NCc1ccc(-c2ccc(CCCC(=O)Nc3ccc(O)cc3)cc2)cc1` [Compound 1-07, 4-(4′-(aminomethyl)-[1,1′-biphenyl]-4-yl)-N-(4-hydroxyphenyl)butanamide], the EC50 was determined as 1500 ± 300 nM in the data set with U251, 3.1 ± 1 µM in the data set with U87vIII [1] and 1.8 ± 0.3 µM with U87 [2].
Taken in the same sequence, the figures for `O=C(CCCc1ccc(Br)cc1)Nc1ccc(O)cc1` [Compound 1-17, 4-(4-bromophenyl)-N-(4-hydroxyphenyl)butanamide] were greater than 10000 nM, greater than 10 µM and greater than 10 µM.
On to `O=C(CCCc1ccc(-c2cccnc2F)cc1)Nc1ccc(O)cc1` [Compound 1-18, 4-(4-(2-fluoropyridin-3-yl)phenyl)-N-(4-hydroxyphenyl)butanamide], for which the concentration giving a half-maximal response (EC50) in the data set on U251 was 1600 ± 200 nM; in the data set with U87vIII [1] it was 1.7 ± 0.1 µM; in data set [3], 2000 nM; in the data set on U87 [2] it was 1.4 ± 0.2 µM. Besides, the “brain uptake / crossing of the BBB” value in data set [4] is “readily crossed the BBB”.
For `COc1ncc(-c2ccc(CCCC(=O)Nc3ccc(O)cc3)cc2)cn1` [Compound 1-19, N-(4-hydroxyphenyl)-4-(4-(2-methoxypyrimidin-5-yl)phenyl)butanamide], the EC50 with U251 is greater than 10000 nM; with U87vIII [1] it was greater than 10 µM; with U87 [2], greater than 10 µM.
On to `O=C(CCCc1ccc(-c2cccnc2F)cc1)Nc1ccccc1` [Compound 1-20, 4-(4-(2-fluoropyridin-3-yl)phenyl)-N-phenylbutanamide], for which the concentration giving a half-maximal response (EC50) with U251 is 4600 ± 200 nM; in the data set on U87vIII [1], greater than 10 µM; in the data set with U87 [2], 6.6 ± 0.9 µM.
Taken in the same sequence, the figures for `O=C(CCCc1ccc(-c2ccc(F)nc2)cc1)Nc1ccc(O)cc1` [Compound 1-21, 4-(4-(6-fluoropyridin-3-yl)phenyl)-N-(4-hydroxyphenyl)butanamide] were greater than 10000 nM, greater than 10 µM and 4.8 ± 1.2 µM.
Taken in the same sequence, the figures for `O=C(CCCc1ccc(-c2ccc(F)nc2F)cc1)Nc1ccc(O)cc1` [Compound 1-22, 4-(4-(2,6-difluoropyridin-3-yl)phenyl)-N-(4-hydroxyphenyl)butanamide] were 1650 ± 100 nM, 3.4 ± 0.4 µM and 2.9 ± 0.9 µM.
The matching figures for `O=C(CCCc1ccc(-c2cccnc2)cc1)Nc1ccc(O)cc1` [Compound 1-38, N-(4-hydroxyphenyl)-4-(4-(pyridin-3-yl)phenyl)butanamide]: 1200 ± 100 nM, 4.3 ± 0.3 µM and 4.6 ± 0.8 µM.
Turning to `O=C(CCCc1ccc(-c2ccccc2F)cc1)Nc1ccc(O)cc1` [SC-38, reference compound], in the data set on U87vIII [5], the “apoptosis, U87vIII” value is “induced apoptosis”. In addition, the EC50 in data set [6] was determined as 260 nM; with U251 it was 430 ± 100 nM; with U87vIII [1], 0.68 ± 0.1 µM; in [3], 910 nM; with U87 [2], 0.38 ± 0.1 µM. Further, in the data set on U87 [7], the “apoptosis, U87” value is “induced apoptosis”. Further, the “viability of glioma cell lines” value with glioma cell lines (Alamar Blue) is on record as “decreases viability of glioma cell lines”. In addition, the “cytotoxicity (ToxiLight)” value in the data set on glioma cell lines (supernatant) is reported as “selectively cytotoxic”.
Take `CC(=O)O[C@H]1C(=O)[C@@]2(C)[C@H]([C@H](OC(=O)c3ccccc3)[C@]3(O)C[C@H](OC(=O)[C@H](O)[C@@H](NC(=O)c4ccccc4)c4ccccc4)C(C)=C1C3(C)C)[C@]1(OC(C)=O)CO[C@@H]1C[C@@H]2O` [paclitaxel]: the “effect on tubulin polymerisation compared to control” value on Porcine brain tubulin is recorded as “enhanced tubulin polymerisation”.
Same read-out and setting: with `CC[C@]1(O)C[C@@H]2CN(CCc3c([nH]c4ccccc34)[C@@](C(=O)OC)(c3cc4c(cc3OC)N(C)[C@H]3[C@@](O)(C(=O)OC)[C@H](OC(C)=O)[C@]5(CC)C=CCN6CC[C@]43[C@@H]65)C2)C1` [vinblastine] the entry was “inhibited tubulin polymerisation in a dose-dependent manner”.
